These results are taken from PubChem BioAssay (NCI).

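Growth conditions: 96-well plates. Treatment: test compound, 48 hours, 5 concentrations. Analysis: linear interpolation between bracketing concentrations; unreached endpoints set to highest concentration. TGI: total growth inhibition.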 Where only a bound is given, the exact number is not on record here.

Among the test systems are 786-0 renal; A549 NSCLC; ACHN renal; DU-145 prostate; HCC-2998 colon; HOP-62 NSCLC; HS 578T breast; HT29 colon; M14 melanoma; NCI-H226 lung; NCI-H460 lung; NCI/ADR-RES ovarian; SF-539 CNS; SK-OV-3 ovarian; SNB-19 CNS; SR leukemia; UACC-62 melanoma; UO-31 renal; HCT-116 colon.
What all share (test): inhibition of tumour cell growth, NCI panel, 48 h

Consider `O=C1Nc2ccccc2/C1=C\c1c(Cl)[nH]c2ccccc12`, for which the TGI with 786-0 renal worked out at 3.66 µM; with A549 NSCLC, 13.3 µM; in the assay on ACHN renal it was 13.1 µM; with DU-145 prostate it was 20 µM; in the assay with HCC-2998 colon, 1.68 µM; with HOP-62 NSCLC, 7.51 µM. Moreover, the TGI in the assay on HS 578T breast worked out at 2.57 µM; in the assay on HT29 colon, 0.598 µM; with M14 melanoma it was 4.12 µM; with NCI-H226 lung, 35.5 µM; in the assay with NCI-H460 lung, 2.59 µM; in the assay on NCI/ADR-RES ovarian, 1.31 µM. The TGI was 1.43 µM in the assay with SF-539 CNS; 1.2 µM in the assay on SK-OV-3 ovarian; 5.21 µM with SNB-19 CNS; 0.918 µM in the assay with SR leukemia; 9.75 µM in the assay on UACC-62 melanoma; 6.84 µM in the assay with UO-31 renal.

With `Cc1ccc2c(c1)C(=O)c1ccc(C)nc1C2=O`, the TGI was over 100 µM with 786-0 renal; over 100 µM in the assay with A549 NSCLC; over 100 µM with ACHN renal; over 100 µM in the assay with DU-145 prostate; 97.1 µM with HCC-2998 colon; 42.1 µM in the assay on HCT-116 colon. For the same molecule, the TGI with HOP-62 NSCLC was over 100 µM; with HS 578T breast, over 100 µM; in the assay on HT29 colon, over 100 µM; in the assay on M14 melanoma, over 100 µM; in the assay on NCI-H226 lung, over 100 µM; with NCI/ADR-RES ovarian, 67.3 µM. Further, the TGI is 68.5 µM in the assay on SF-539 CNS; over 100 µM with SK-OV-3 ovarian; 63.6 µM in the assay on SNB-19 CNS; over 100 µM in the assay on SR leukemia; 48.9 µM in the assay with UACC-62 melanoma; over 100 µM with UO-31 renal.

In the case of `CSc1nc2ccccc2c(=O)n1-c1cccc(C)c1`, the TGI is over 100 µM in the assay with 786-0 renal; over 100 µM in the assay with A549 NSCLC; over 100 µM with ACHN renal; over 100 µM with DU-145 prostate; 35.1 µM in the assay on HCC-2998 colon; over 100 µM with HCT-116 colon. The TGI in the assay on HOP-62 NSCLC, in the assay on HS 578T breast, in the assay with HT29 colon, in the assay with M14 melanoma, with NCI-H226 lung and in the assay with NCI-H460 lung was over 100 µM throughout. In addition, the TGI in the assay with NCI/ADR-RES ovarian is over 100 µM; in the assay on SF-539 CNS it was over 100 µM; in the assay on SK-OV-3 ovarian, over 100 µM; in the assay on SNB-19 CNS it was over 100 µM; in the assay on SR leukemia, 49.7 µM; in the assay with UACC-62 melanoma, over 100 µM.

On to `CC(=O)Nc1ccccc1S(=O)(=O)c1c(-c2c(C)c(Cl)c(C)c(Cl)c2C)noc1C`, for which the TGI with 786-0 renal is 40.6 µM; with A549 NSCLC it was over 100 µM; with ACHN renal, over 100 µM; in the assay on DU-145 prostate, over 100 µM; in the assay with HCC-2998 colon, over 100 µM; with HCT-116 colon it was over 100 µM. Moreover, the TGI in the assay on HOP-62 NSCLC is 50 µM; with HS 578T breast, 73.7 µM; with HT29 colon it was over 100 µM; in the assay with M14 melanoma, over 100 µM; in the assay on NCI-H226 lung it was 78.8 µM; in the assay on NCI-H460 lung it was over 100 µM. Besides, the TGI in the assay with NCI/ADR-RES ovarian is over 100 µM; in the assay on SK-OV-3 ovarian, over 100 µM; in the assay on SNB-19 CNS, 64.5 µM; in the assay on SR leukemia it was 43.2 µM; in the assay with UACC-62 melanoma, over 100 µM; with UO-31 renal, over 100 µM.

For `Cc1cc2c(cc1-c1cc3c(cc1C)C(C(C)C)=C(O)C(=O)/C3=C\Nc1cccc3c(N)cccc13)/C(=C/Nc1cccc3c(N)cccc13)C(=O)C(O)=C2C(C)C`, the TGI with 786-0 renal, in the assay with A549 NSCLC, in the assay on ACHN renal, in the assay on DU-145 prostate, in the assay on HCC-2998 colon and with HCT-116 colon was over 100 µM in each case. For the same molecule, the TGI with HOP-62 NSCLC, in the assay with HS 578T breast, in the assay with HT29 colon, with M14 melanoma, with NCI-H226 lung and in the assay on NCI-H460 lung was over 100 µM in each case. The TGI in the assay on NCI/ADR-RES ovarian, in the assay on SK-OV-3 ovarian, in the assay on SNB-19 CNS, in the assay on SR leukemia, in the assay on UACC-62 melanoma and in the assay on UO-31 renal was over 100 µM each time.

Turning to `COC(=O)[C@@H](COC(=O)/C=C/c1ccc(OC(C)=O)c(OC(C)=O)c1)NC(=O)/C=C/c1ccc(OC(C)=O)c(OC(C)=O)c1`, the TGI with 786-0 renal was 73.7 µM; in the assay with A549 NSCLC, over 100 µM; in the assay with ACHN renal, over 100 µM; in the assay on DU-145 prostate, 60.7 µM; with HCC-2998 colon, 76.4 µM; in the assay with HCT-116 colon, 39.5 µM. Moreover, the TGI in the assay with HOP-62 NSCLC is 75.5 µM; in the assay on HS 578T breast, 94.6 µM; in the assay with HT29 colon, 88 µM; in the assay with M14 melanoma, 73.8 µM; in the assay with NCI-H226 lung it was over 100 µM; in the assay on NCI-H460 lung, 47 µM. The TGI in the assay with NCI/ADR-RES ovarian was over 100 µM; in the assay with SF-539 CNS, 74.7 µM; in the assay on SK-OV-3 ovarian, over 100 µM; in the assay with SNB-19 CNS it was over 100 µM; in the assay with SR leukemia it was over 100 µM; with UACC-62 melanoma, 45.9 µM.

In the case of `COc1cc([C@@H]2c3cc4c(cc3[C@@H](N=Cc3ccc(C(=O)O[C@H]5C[C@H]6OC[C@@]6(OC(C)=O)[C@H]6[C@H](OC(=O)c7ccccc7)[C@]7(O)C[C@H](OC(=O)[C@H](OC(=O)c8ccc(C=N[C@@H]9c%10cc%11c(cc%10[C@@H](c%10cc(OC)c(O)c(OC)c%10)[C@H]%10C(=O)OC[C@@H]%109)OCO%11)cc8)[C@@H](NC(=O)c8ccccc8)c8ccccc8)C(C)=C([C@@H](OC(C)=O)C(=O)[C@]56C)C7(C)C)cc3)C3COC(=O)C32)OCO4)cc(C)c1O` (stereo partly specified), the TGI with 786-0 renal, in the assay with A549 NSCLC, with ACHN renal, in the assay with DU-145 prostate, with HCC-2998 colon and in the assay with HCT-116 colon was over 50 µM each time. Further, the TGI in the assay on HOP-62 NSCLC was over 50 µM; in the assay on HS 578T breast, over 50 µM; in the assay with HT29 colon, over 25.2 µM; in the assay on M14 melanoma, over 21 µM; in the assay with NCI-H226 lung it was over 50 µM; in the assay on NCI-H460 lung, over 50 µM. For the same molecule, the TGI with NCI/ADR-RES ovarian is over 50 µM; in the assay with SF-539 CNS, over 37.8 µM; with SK-OV-3 ovarian, over 39.3 µM; in the assay with SNB-19 CNS, over 50 µM; in the assay with SR leukemia, over 50 µM; in the assay with UACC-62 melanoma, over 39.2 µM.
